Tests used:
Rattus norvegicus [1] = species: Rattus norvegicus; test: animal or person; details: Plasma, po, 7 h, read-out: Inhibition
Description: Ex vivo inhibition of DPP4 in rat plasma at 10 mg/kg, po after 7 hrs

[2] = molecular target: T1, Muscarinic acetylcholine receptor M1 (Homo sapiens, UniProt P11229); test: Displacement of [N-methyl-3H]scopolamine from human recombinant muscarinic receptor M1 expressed in CHO cell membrane; type: cell membranes
T1 sequence (P11229 whole entry): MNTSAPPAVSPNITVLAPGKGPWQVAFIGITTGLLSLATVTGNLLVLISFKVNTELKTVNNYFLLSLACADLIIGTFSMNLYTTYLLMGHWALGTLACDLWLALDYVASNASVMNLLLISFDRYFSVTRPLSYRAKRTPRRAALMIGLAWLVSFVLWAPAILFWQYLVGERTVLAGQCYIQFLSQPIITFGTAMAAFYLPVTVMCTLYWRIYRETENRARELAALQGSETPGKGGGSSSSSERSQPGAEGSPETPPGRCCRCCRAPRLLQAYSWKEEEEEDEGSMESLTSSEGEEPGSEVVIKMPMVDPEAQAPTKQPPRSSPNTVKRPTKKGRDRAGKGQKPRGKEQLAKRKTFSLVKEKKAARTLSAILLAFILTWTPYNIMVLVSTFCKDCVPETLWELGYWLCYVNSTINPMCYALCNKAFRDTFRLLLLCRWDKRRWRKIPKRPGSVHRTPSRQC

[3] = Metabolic stability in human liver cytosol assessed as half life; type: ADME, tissue-based
Cytochrome P450 2C9 = Cytochrome P450 2C9 (Homo sapiens, UniProt P11712); test: Inhibition of CYP2C9; type: ADME
Cytochrome P450 2C19 = Cytochrome P450 2C19 (Homo sapiens, UniProt P33261); test: Inhibition of CYP2C19; type: ADME
[4] = Mean residence time in rat; type: ADME, organism-based; details: in vivo
hERG (KCNH2) = hERG (KCNH2) (Homo sapiens, UniProt Q12809); test: Inhibition of human ERG assessed as channel current activity at 1 uM; parameters: scale not given: the % may be the effect or the level left; details: read-out: Activity
[5] = Clearance in rat; type: ADME, organism-based; details: in vivo
Cytochrome P450 2D6 = Cytochrome P450 2D6 (Homo sapiens, UniProt P10635); test: Inhibition of CYP2D6; type: ADME
Cytochrome P450 3A4 = Cytochrome P450 3A4 (Homo sapiens, UniProt P08684); test: Inhibition of CYP3A4; type: ADME
[6] = Volume of distribution at steady state in rat; type: ADME, organism-based; details: in vivo, read-out: Vdss
[7] = Metabolic stability in human liver microsomes assessed as half life; type: ADME, Microsome
Rattus norvegicus [8] = test: Ex vivo inhibition of DPP4 in rat plasma at 10 mg/kg, po after 24 hrs; type: functional; parameters: scale not given: the % may be the effect or the level left
[9] = Oral bioavailability in rat; type: ADME, organism-based; details: in vivo
Cytochrome P450 1A2 = molecular target: T2, Cytochrome P450 1A2 (Homo sapiens, UniProt P05177); test: Inhibition of CYP1A2; type: ADME
T2 sequence (P05177 whole entry): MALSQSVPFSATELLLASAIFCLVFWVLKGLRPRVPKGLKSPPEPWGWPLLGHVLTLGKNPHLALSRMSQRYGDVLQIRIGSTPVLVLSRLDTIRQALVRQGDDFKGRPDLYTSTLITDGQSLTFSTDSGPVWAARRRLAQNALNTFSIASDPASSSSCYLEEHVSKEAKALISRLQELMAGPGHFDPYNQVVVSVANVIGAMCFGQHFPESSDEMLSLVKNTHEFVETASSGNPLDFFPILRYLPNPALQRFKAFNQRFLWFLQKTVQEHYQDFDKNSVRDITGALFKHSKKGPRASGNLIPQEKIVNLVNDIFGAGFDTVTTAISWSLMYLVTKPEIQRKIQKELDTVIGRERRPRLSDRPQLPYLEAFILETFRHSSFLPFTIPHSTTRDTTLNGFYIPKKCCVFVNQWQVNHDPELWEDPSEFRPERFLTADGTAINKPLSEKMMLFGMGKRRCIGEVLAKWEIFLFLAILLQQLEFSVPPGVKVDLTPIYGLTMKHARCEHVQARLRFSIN

Chain of Cytochrome P450 2D6 (P10635 whole entry): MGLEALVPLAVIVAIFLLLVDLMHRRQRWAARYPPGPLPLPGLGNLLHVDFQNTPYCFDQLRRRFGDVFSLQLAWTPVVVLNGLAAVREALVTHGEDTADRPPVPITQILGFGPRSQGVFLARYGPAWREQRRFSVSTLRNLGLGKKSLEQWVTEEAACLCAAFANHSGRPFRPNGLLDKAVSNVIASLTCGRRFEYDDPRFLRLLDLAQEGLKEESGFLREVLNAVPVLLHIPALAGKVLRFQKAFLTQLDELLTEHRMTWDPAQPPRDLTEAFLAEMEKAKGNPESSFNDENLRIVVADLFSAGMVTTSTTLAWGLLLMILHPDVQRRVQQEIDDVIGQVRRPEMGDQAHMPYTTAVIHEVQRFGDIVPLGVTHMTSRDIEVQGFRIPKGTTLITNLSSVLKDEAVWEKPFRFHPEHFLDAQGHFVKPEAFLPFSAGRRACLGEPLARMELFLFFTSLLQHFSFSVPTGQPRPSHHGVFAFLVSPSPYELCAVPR
Chain of Cytochrome P450 2C9 (P11712 whole entry): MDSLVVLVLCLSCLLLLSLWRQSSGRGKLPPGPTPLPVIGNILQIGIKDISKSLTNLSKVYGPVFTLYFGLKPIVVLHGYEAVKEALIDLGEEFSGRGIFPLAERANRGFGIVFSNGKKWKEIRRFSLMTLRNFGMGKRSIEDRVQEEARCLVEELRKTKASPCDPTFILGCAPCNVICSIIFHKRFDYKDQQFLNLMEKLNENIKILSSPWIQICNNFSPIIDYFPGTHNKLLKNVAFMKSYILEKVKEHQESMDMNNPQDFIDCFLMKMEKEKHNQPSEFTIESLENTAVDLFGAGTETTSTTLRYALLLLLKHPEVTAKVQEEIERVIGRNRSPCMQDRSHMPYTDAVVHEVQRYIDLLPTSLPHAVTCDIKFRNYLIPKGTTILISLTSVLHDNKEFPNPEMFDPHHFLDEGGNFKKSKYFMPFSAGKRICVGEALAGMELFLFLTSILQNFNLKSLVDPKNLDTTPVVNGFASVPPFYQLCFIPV
Chain of Cytochrome P450 2C19 (P33261 whole entry): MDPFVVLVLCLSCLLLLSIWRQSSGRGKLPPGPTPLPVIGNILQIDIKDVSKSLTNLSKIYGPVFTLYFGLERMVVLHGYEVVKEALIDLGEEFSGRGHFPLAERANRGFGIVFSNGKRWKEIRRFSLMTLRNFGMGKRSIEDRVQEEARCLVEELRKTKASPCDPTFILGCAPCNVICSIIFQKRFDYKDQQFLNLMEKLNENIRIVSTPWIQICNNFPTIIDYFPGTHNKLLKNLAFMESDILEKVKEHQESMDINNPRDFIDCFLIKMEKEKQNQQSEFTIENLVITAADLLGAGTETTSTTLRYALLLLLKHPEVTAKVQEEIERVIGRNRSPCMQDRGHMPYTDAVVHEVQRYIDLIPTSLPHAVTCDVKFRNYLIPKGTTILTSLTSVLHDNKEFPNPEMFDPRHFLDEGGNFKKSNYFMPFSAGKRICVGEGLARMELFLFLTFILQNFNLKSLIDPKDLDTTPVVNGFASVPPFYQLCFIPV
Chain of Cytochrome P450 3A4 (P08684 whole entry): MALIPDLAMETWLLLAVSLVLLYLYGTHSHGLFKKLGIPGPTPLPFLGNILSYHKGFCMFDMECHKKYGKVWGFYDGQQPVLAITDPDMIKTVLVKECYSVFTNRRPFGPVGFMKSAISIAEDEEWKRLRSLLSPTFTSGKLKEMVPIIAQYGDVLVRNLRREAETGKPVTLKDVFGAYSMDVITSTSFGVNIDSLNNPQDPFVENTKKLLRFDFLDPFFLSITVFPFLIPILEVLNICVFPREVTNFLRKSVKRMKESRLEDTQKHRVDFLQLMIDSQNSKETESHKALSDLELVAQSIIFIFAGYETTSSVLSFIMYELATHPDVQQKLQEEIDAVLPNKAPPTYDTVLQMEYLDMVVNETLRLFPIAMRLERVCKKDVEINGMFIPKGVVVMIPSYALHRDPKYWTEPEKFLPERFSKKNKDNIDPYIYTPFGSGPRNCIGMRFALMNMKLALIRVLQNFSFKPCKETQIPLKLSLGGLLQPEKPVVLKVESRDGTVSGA
Chain of hERG (KCNH2) (Q12809 whole entry): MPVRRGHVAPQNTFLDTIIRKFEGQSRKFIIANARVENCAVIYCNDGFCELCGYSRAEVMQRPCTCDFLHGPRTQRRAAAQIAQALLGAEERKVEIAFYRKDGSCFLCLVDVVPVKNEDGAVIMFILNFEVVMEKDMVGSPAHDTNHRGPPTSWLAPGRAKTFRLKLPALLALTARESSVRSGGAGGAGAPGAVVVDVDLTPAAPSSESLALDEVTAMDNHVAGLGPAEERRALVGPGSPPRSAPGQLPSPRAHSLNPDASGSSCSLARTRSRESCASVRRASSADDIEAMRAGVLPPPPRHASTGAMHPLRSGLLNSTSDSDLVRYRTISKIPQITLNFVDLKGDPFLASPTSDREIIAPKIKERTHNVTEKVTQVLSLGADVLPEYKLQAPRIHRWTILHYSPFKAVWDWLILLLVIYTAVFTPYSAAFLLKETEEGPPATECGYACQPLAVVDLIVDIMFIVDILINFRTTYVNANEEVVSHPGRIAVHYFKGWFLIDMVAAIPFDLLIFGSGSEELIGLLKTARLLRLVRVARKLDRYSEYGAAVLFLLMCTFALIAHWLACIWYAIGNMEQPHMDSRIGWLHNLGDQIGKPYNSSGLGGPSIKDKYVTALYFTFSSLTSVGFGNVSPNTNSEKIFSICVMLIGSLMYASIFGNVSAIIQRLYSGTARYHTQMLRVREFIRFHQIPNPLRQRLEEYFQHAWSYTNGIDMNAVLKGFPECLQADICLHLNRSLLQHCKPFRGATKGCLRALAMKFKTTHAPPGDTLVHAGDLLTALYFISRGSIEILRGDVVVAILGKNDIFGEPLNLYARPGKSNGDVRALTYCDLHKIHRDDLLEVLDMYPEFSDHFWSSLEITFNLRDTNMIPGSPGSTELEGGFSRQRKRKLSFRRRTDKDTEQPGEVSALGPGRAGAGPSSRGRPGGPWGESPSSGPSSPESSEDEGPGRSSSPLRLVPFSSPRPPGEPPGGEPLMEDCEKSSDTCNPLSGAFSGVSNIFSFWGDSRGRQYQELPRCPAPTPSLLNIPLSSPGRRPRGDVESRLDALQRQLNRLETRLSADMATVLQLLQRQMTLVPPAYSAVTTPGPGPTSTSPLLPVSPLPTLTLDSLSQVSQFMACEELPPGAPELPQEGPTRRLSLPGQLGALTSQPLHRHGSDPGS

Row | SMILES | inhibition in vivo at 10 mg/kg (Rattus norvegicus [1]) [%] | IC50 [2] [nM] | also measured
1 | CC#CCn1c(N2CCCC(N)C2)nc2cnn(Cc3ccc(C#N)c4ccccc34)c(=O)c21 (centres undefined) | 84 | 862 | –
2 | CC#CCn1c(NCCN)nc2cnn(Cc3nc(C)c4ccccc4n3)c(=O)c21 | 29 | > 5000 | –
3 | CC#CCn1c(N2CCCC(N)C2)nc2cnn(Cc3nc4ccccc4o3)c(=O)c21 (centres undefined) | 64 | – | –
4 | CC#CCn1c(N2CCC[C@@H](N)C2)nc2cnn(CC3=Nc4ccccc4Oc4ccccc43)c(=O)c21 | 63 | > 5000 | –
5 | CC#CCn1c(N2CCCNCC2)nc2cnn(Cc3nc(C)c4ccccc4n3)c(=O)c21 | 20 | 954 | –
6 | CC#CCn1c(N2CCCC(N)C2)nc2cnn(CC(=O)c3ccccc3)c(=O)c21 (centres undefined) | 8 | – | –
7 | CC#CCn1c(N2CCC[C@H](N)C2)nc2cnn(CC3=Nc4ccccc4Oc4ccccc43)c(=O)c21 | 9 | – | –
8 | CC#CCn1c(N2CCC[C@@H](N)C2)nc2cnn(Cc3nc(C)c4ccccc4n3)c(=O)c21 | 80 | 1190 | half-life [3]: > 1.5 h; Inhibition (Cytochrome P450 2C9): > 50 µM; Inhibition (Cytochrome P450 2C19): > 50 µM; MRT [4]: 8.8 h; activity at 1 µM (hERG (KCNH2)): 88%; clearance [5]: 56 mL/min/kg; Inhibition (Cytochrome P450 2D6): > 50 µM; Inhibition (Cytochrome P450 3A4): > 50 µM; Vd [6]: 40 L/kg; half-life [7]: > 1.5 h; Activity (Rattus norvegicus [8]): 71%; bioavailability [9]: 15%; Inhibition (Cytochrome P450 1A2): > 50 µM
9 | CC#CCn1c(NC[C@H](C)N)nc2cnn(Cc3nc(C)c4ccccc4n3)c(=O)c21 | 50 | > 5000 | –
10 | CC#CCn1c(N2CCC[C@@H](N)C2)nc2c(C)nn(Cc3nc(C)c4ccccc4n3)c(=O)c21 | 76 | 93 | –
11 | CC#CCn1c(N2CCCC(N)C2)nc2cnn(CC3=Nc4ccccc4Oc4ccccc43)c(=O)c21 (centres undefined) | 73 | 5610 | –
12 | CC#CCn1c(N2CCNCC2)nc2cnn(Cc3nc(C)c4ccccc4n3)c(=O)c21 | 45 | 2800 | –

Reference: ChEMBL document CHEMBL1145558, “3,5-Dihydro-imidazo[4,5-d]pyridazin-4-ones: a class of potent DPP-4 inhibitors” (Bioorg Med Chem Lett, 2008)
